Measurements published in patent US4924002A, “Novel process for the preparation of pyrazoles from isoxazoles” (Warner-Lambert Company, priority 1989, dated 1990).

Experiments:
5-lipoxygenase = molecular target: T1, 5-lipoxygenase (Rattus norvegicus, UniProt P12527); assay: ARBL RBL-1 whole cell 5-lipoxygenase assay (LTB4 by RIA); assay type: cell-based; conditions: RBL-1 intact cells, 5 μM A23187, LTB4
T1 construct: host or cells: RBL-1 (rat basophilic leukemia)
T1 sequence (P12527 1-673): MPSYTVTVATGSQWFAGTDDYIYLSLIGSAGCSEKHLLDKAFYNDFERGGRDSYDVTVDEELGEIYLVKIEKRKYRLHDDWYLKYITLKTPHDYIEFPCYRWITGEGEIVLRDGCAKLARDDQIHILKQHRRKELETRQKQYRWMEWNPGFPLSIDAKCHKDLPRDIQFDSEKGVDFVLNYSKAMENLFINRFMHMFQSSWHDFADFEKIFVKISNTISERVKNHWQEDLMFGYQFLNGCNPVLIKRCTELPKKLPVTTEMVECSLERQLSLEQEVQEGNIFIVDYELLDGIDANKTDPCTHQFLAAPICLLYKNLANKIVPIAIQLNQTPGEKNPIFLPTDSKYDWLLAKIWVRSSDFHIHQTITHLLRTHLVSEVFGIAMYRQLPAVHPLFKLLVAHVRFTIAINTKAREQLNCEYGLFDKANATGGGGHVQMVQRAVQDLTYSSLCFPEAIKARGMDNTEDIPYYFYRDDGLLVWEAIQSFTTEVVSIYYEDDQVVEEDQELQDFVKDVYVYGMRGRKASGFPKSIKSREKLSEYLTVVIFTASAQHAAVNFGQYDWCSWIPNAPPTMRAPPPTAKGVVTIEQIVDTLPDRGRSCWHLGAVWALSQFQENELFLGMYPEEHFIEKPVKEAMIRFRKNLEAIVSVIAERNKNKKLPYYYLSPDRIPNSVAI
Description: (§1) ARBL/ARBC Whole Cell 5-Lipoxygenase and Cyclooxygenase Assays
(§2) The rat basophilic leukemia cell line (RBL-1) was obtained from the American Type Culture Collection (Rockville, Md.).
(§3) Radioimmuno assay (RIA) kits of LTB4 and PGF2α were obtained from Amersham (Arlington Heights, Ill.) and Seragen (Boston, Mass.) respectively.
(§4) All tissue culture media were obtained from GIBCO (Grand Island, N.Y.).
(§5) RBL-1 cells were grown in culture (suspension) in Eagle's minimum essential medium supplemented with 12% fetal bovine serum and 1:100 antibiotic-antimycotic mixture at 37° C. in an incubator supplied with air-5% carbon dioxide. Cells were harvested by centrifugation. They were washed with cold phosphate buffered saline pH 7.4 (PBS; NaCl, 7.1 g; Na2 HPO4, 1.15 g; KH2 PO4, 0.2 g; and KCl, 0.2 g/L). […] Calcium ionophore A23187 (5 μM) was added and cells were incubated for seven minutes at 37° C. The reaction was stopped by chilling the tubes in ice for ten minutes. Cells were separated by centrifugation and the supernatant was stored at -20°. Aliquots (100 μl) were analyzed for LTB4 and PGF2α using radioimmuno assay kits as provided by the supplier.

cyclooxygenase = molecular target: T2, cyclooxygenase (Rattus norvegicus, UniProt Q63921); assay: ARBC RBL-1 whole cell cyclooxygenase assay (PGF2α by RIA); assay type: cell-based; conditions: RBL-1 intact cells, 5 μM A23187, PGF2α
T2 construct: host or cells: RBL-1 (rat basophilic leukemia)
T2 sequence (Q63921 27-602): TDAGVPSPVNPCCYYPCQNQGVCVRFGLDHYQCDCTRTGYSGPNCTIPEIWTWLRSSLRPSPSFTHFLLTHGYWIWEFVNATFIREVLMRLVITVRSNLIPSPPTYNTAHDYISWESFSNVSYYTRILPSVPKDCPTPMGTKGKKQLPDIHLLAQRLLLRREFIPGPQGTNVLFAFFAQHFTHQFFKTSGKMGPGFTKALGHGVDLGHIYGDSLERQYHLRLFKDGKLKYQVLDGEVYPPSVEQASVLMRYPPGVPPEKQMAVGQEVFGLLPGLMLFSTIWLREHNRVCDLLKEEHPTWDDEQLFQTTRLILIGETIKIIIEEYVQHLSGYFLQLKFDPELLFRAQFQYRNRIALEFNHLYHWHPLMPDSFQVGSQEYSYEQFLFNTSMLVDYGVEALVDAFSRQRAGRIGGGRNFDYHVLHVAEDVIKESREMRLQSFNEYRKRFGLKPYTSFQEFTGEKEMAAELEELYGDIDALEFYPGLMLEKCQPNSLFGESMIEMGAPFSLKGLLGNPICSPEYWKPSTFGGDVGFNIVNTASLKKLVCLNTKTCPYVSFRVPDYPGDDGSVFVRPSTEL
Description: as §1, §2, §3, §4, §5

[1] = Ultraviolet absorbing properties compared with p-aminobenzoic acid; assay type: physicochemical; parameters: UV max: unit not given here; conditions: for α: ultraviolet absorption
Description: The ultraviolet absorbing properties of the compounds of the present invention is generally shown by a comparison with p-aminobenzoic acid which is the active ingredient in most commercial sunscreens. Such properties are within the ultraviolet absorbing ranges of […] range critical to effectiveness. A representative compound of the invention is compared to p-aminobenzoic acid in the following Table.

Row | IC50 (5-lipoxygenase) | IC50 (cyclooxygenase) | UV max [1] | α [1] | SMILES
1 | 3.3 µM | 4.2 µM | – | – | Cc1cc(C=Cc2cc(Br)c(O)c(Br)c2)no1 [Example 54B]
2 | 10 µM | 2 µM | – | – | COC(=O)C(=Cc1cc(C(C)(C)C)c(O)c(C(C)(C)C)c1)c1cc(C)no1 [Example 46, 5-[α-Carbomethoxy-β-(4'-hydroxy-3',5'-bis(1,1-dimethylethyl)phenyl)ethenyl]-3-methylisoxazole]
3 | – | – | 292 | 111.1 | COc1cc(C=Cc2cc(C)[nH]n2)ccc1O [Example 5, 3-[β-(4'-Hydroxy-3'-methoxyphenyl)ethenyl]-5-methyl-pyrazole]
4 | – | – | – | 132.2 | Nc1ccc(C(=O)O)cc1 [p-aminobenzoic acid, reference compound]
5 | 5.7 µM | 14.5 µM | – | – | Cc1cc(C=Cc2cc(Br)c(O)c(Br)c2)n[nH]1 [Example 58, 3-[β-(4'-Hydroxy-3',5'-dibromophenyl)ethenyl]-5-methylpyrazole]
